Consider ten molecules from patent US20250249014A1, “A COMBINATION FOR TREATING A RETINAL DISEASE” (HADASIT MEDICAL RESEARCH SERVICES AND DEVELOPMENT LTD., priority 2022, published 2025).

The subject of assay [1] is HUVECs. Briefly: Cell proliferation assay (WST-1) on HUVECs, with synergy analysis. Type of assay: cell-based, Human. The note with it: for IC50 (inhibitory concentration of 50% cell growth compared to control) / IC50 / % of Inhibition ± SD: HUVECs proliferation; for dose-proliferation inhibition relationship: increasing SMI concentration; for IC50: Homo sapiens, HUVEC; for % of Inhibition ± SD: maximal attainable concentration of each SMI (28.421 μM, 17.85 μM, 20.99 μM); for effect of addition to the Azeliragon and EHop-016 combination on proliferation inhibition: CCR2-RA-[R] 22.74 μM. The procedure:
Cell proliferation assay—The principle of cell proliferation assay is illustrated in FIG. 1. Briefly, HUVECS were seeded and maintained in EGM™-2 (Lonza Bioscience Solutions) medium for 24 hours. The cells were then treated with various dosages of SMI for designated time periods. Each experiment included a DMSO-treated control group. Tetrazolium salt was added according to the manufacturer's instructions and formation of formazan dye was quantified by measuring the absorbance at 440 nm using spectrophotometer. The formation of formazan dye is directly proportional to number of living cells.
Analysis of combined synergistic effect-Analysis of combined SMIs effect was determined from the results of the cell proliferation assay after 72 hours. SMIs synergy was determined by three synergy models. • 1. The Zero Interaction Potency (ZIP) model is a reference model for evaluating the effect of combination of two drugs by comparing the change in the potency of the dose-response curves between individual drugs and their combinations. A zip score higher than 10 is indicative of a synergistic combination, a zip score of between −10 and 10 is indicative of an additive combination and a zip score lower than −10 is indicative of an antagonistic combination. • 2. […] Values below 1 will represent synergism and above 1 antagonism.
In general terms: Formazan colour is commonly taken as a measure of viable cells.

Assay [2] concerns HUVECs. Briefly: Endothelial cell migration assay (scratch test). Type of assay: cell-based, Human. The note with it: EHop-016 0.8 μM at 11 hours, CCR2-RA-[R] 5 μM at 13 hours. The procedure: Endothelial cell migration assay (scratch test)—5×10^4 cells/200 μl of HUVECs were cultured in 96 wells Incucyte® ImageLock 96-well microplates plates to near confluence in EGM™-2 medium for 24 hours. Afterwards, a homogeneous, 700-800-micron wide scratch wounds were created using Incucyte® WoundMaker. Different SMIs concentrations vs. DMSO (solvent) were added. Serial images for 26 hours of the migrating cells were obtained hourly using a live cell imaging system (Incucyte®).

Assay [3] deals with Hypoxia-inducible factor 1-alpha (HIF-1α). Briefly: Western blot of HIF-1α expression in HUVEC cells. Type of assay: cell-based, Human. To be noted: 72 hours, combination Azeliragon 0.6 μM and EHop-016 1.3 μM. (In general: Immunoblotting shows a protein as a band on a membrane.)
Protocol: Western blot—5×10^4 HUVEC cells were seeded in 10 cm dish in EGM™-2 medium for 24 hours. The cells were then treated with various dosages and combinations of SMI for 72 hours in addition to a control group treated with DMSO. Cells were lysed in WCE (whole-cell extraction) buffer [25 mM Hepes, pH 7.7, 0.3 M NaCl, 1.5 mM MgCl2, 0.2 mM EDTA, 0.1% Triton X-100, 0.5 mM DTT (dithiothreitol), 20 mM 2-glycerophosphate, 0.1 mM Na3VO4, 100 μg/ml PMSF and protease inhibitor cocktail (Sigma-Aldrich, 1:100 dilution)]. The proteins were then separated by SDS/PAGE (10% gel), followed by transfer on to a nitrocellulose membrane. Blots were blocked in 5% (w/v) non-fat dried skimmed milk powder in PBS and washed in PBS.
The next assay has as its system choroid explants. Briefly: Choroid sprouting assay, ex-vivo. Type of assay: cell-based, C57BL/6J mice. The note with it: 7 days; 0.55 μM Azeliragon, EHop-016 alone, 0.70 μM in combination; compared to untreated and DMSO. The procedure: Plates were then incubated for 10 minutes in 37° C., in a 5% CO2 cell culture incubator without medium to solidify the Matrigel™. […] Fresh medium and SMIs were replaced every two days and grown for 7 days (x3 time medium replaced).

The subject of assay [4] is choroidal neovascularization (CNV). Briefly: Laser-Induced CNV model. Type of assay: in vivo, C57BL/6J mice. To be noted: dosage calibration assays; EHop-016 30 μM, Aflibercept 41.27 μM. The procedure: Laser-Induced CNV Model—CNV was induced in C57BL/6J mice using argon green ophthalmic laser ([…], 50 μm, 0.1 sec) applied under fundoscopy to rupture Bruch's membrane. […] The injections were performed at the superotemporal sclera, where a perforating sclerotomy was made with 27-gauge (G) needle at approximately 1-2 mm from the limbus. Then, 1-2 μl of SMIs (solved in 5% Cremophor: 5% ethanol: 90% saline) vs. Sham were injected through the sclerotomy, under fundoscopy using 34 g microsyringe (Hamilton, Benfleet, UK).
Quantification of CNV—Eyes were enucleated, treated according to standard protocols. […] The flat mounts were then washed six times for 20 min each in PBS and mounted on a slide using mounting medium. The area of CNV surrounding each laser injury was measured using ImageJ software.

In the next assay the test system is VEGF. The note with it: diabetic macular edema patients; cited from earlier work.
Setting [5] is: HUVECs, single 72-hour treatment.
Where [6] appears, read: single 72-hour treatment, read-out: IC50 (inhibitory concentration of 50% cell growth compared to control).

Counter-ions that a name gives are not always drawn. Like-named read-outs stand apart in the source and are kept apart here.

Sequence of VEGF (P15692 207-311 limits assumed): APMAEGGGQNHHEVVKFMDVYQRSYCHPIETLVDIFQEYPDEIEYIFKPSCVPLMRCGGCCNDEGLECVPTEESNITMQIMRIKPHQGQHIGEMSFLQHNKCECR

`Cc1ccc(NC(=O)c2cccc(OCc3c(C)noc3C)c2)cc1S(N)(=O)=O` (racemic) [Z62954982, 3-((3,5-Dimethylisoxazol-4-yl)methoxy)-N-(4-methyl-3-sulfamoyl-phenyl)benzamide]: the “IC50 (inhibitory concentration of 50% cell growth compared to control)” value in the assay on HUVECs [1] (single 72-hour treatment) is recorded as “No effect”. Further, the “inhibitory effect with longer incubation time” value in the assay with HUVECs [1] (HUVECs, treatment time extended to 120 hours compared to 72-hour incubation) is “did not improve the inhibitory effect”.
Turning to `COc1ccc(/C=C/c2cc(O)cc(O)c2)cc1` [4′-Methoxyresveratrol, 5-[(E)-2-(4-Methoxyphenyl)ethen-1-yl]benzene-1,3-diol], the dose-proliferation inhibition relationship result in the assay on HUVECs [1] (setting [5]) was “linear inhibition of proliferation”. In addition, the IC50 in the assay with HUVECs [1] (setting [6]) came out at 64 µM.
As for `O=C(CNC(=O)c1cccc(C(F)(F)F)c1)N[C@@H]1CCN(Cc2ccc(Cl)cc2)C1` [CCR2 antagonist 4 hydrochloride, N-[2-[[(3R)-1-[(4-chlorophenyl)methyl]-3-pyrrolidinyl]amino]-2-oxoethyl]-3-(trifluoromethyl)benzamidehydrochloride], the “% of Inhibition ± SD” value with HUVECs [1] was 13.8 ± 8.07%.
`CC(=O)C1=C(O)C(=O)N(c2ccc(Cl)cc2F)[C@@H]1C1CCCCC1` [CCR2-RA-[R], (R)-4-Acetyl-1-(4-chloro-2-fluorophenyl)-5-cyclohexyl-3-hydroxy-1,5-dihydro-2H-pyrrol-2-one]: in the assay with HUVECs [1], the “inhibition of HUVECs proliferation (summary in words)” value was “did not show significant inhibition” and the “% of Inhibition ± SD” value amounted to 33.4 ± 4.30%. Moreover, in the assay on HUVECs [1] (HUVECs, 24-hour treatment), the “effect of addition to the Azeliragon and EHop-016 combination on proliferation inhibition” value is “significantly augmented the proliferation inhibition effect”. In the assay on HUVECs [1] (HUVECs, 48- and 72-hour treatment), the “effect of addition to the Azeliragon and EHop-016 combination on proliferation inhibition” value is given as “not”. Further, the “inhibition of HUVECs migration” value in the assay with HUVECs [2] is reported as “strongly inhibited cell migration”.
Turning to `CCn1c2ccccc2c2cc(Nc3ccnc(NCCCN4CCOCC4)n3)ccc21` [EHop-016, N4-(9-Ethyl-9H-carbazol-3-yl)-N2-[3-(4-morpholinyl)propyl]-2,4-pyrimidinediamine], in the assay with HUVECs [1] (HUVECs at 3×10^3 and 1×10^3 cells/well), the “dependence of proliferation inhibition on the initial number of cells” value is listed as “independent from the initial number of cells”. Further, the “decrease of IC50 by daily dosing in comparison with IC50 of SD regimen” value in the assay on HUVECs [1] (HUVECs, 72 hours) is reported as “more than a half”. Further, the dose-proliferation inhibition relationship entry with HUVECs [1] (setting [5]) was “linear inhibition of proliferation”. Besides, the IC50 in the assay with HUVECs [1] (daily dosing, 72 hours, read-out: IC50 following daily dosing regimen) worked out at 1.24 µM; in the assay on HUVECs [1] (setting [6]), 2.31 µM. In addition, the HIF-1α expression entry in assay [3] was “inhibited expression”. In the assay with HUVECs [2], the “inhibition of HUVECs migration” value was “strongest migration inhibitor”. The “area of the sprouting vessels” value in the assay on choroid explants was “inhibited the area of the sprouting vessels”. Besides, in assay [4], the CNV area result is given as “comparable to the dramatic effect received from Aflibercept injection”.
`O=C(c1ccc(Cl)cc1)N(Cc1ccccc1)C1CCCCC1` [FPS-ZM1, 4-Chloro-N-cyclohexyl-N-(phenylmethyl)benzamide]: the dose-proliferation inhibition relationship result in the assay on HUVECs [1] (setting [5]) was “linear inhibition of proliferation”. Also, the IC50 in the assay on HUVECs [1] (setting [6]) is 30 µM.
`CCN(CC)CCCC(C)Nc1nc(C)cc(Nc2ccc3nc(C)cc(N)c3c2)n1.Cl.Cl.Cl` (stereo not shown) [NSC 23766 trihydrochloride, N6-[2-(4-Diethylamino-1-methyl-butylamino)-6-methyl-pyrimidin-4-yl]-2-methyl-quinoline-4,6-diamine trihydrochloride]: in the assay on HUVECs [1] (single 72-hour treatment), the “IC50 (inhibitory concentration of 50% cell growth compared to control)” value is recorded as “No effect”.
`O=C(NCC(=O)N1CC[C@H](NC2CCC(O)(c3ccc(-c4ncccn4)cn3)CC2)C1)c1cccc(C(F)(F)F)c1` (stereo partly drawn) [PF-4136309, N-[2-[(3S)-3-[[4-hydroxy-4-(5-pyrimidin-2-ylpyridin-2-yl)cyclohexyl]amino]pyrrolidin-1-yl]-2-oxoethyl]-3-(trifluoromethyl)benzamide]: in the assay on HUVECs [1], the “% of Inhibition ± SD” value stood at 25.7 ± 7.68%.
Take “Aflibercept: Aflibercept (Eylea®), comparator injection in Laser-induced CNV model”: in assay [4], the CNV area result is reported as “dramatic effect”.

B1: Ranibizumab: a monoclonal antibody that inhibits VEGF (antibody, chains of the INN, looked up, V domains shown)
VH: EVQLVESGGGLVQPGGSLRLSCAASGYDFTHYGMNWVRQAPGKGLEWVGWINTYTGEPTYAADFKRRFTFSLDTSKSTAYLQMNSLRAEDTAVYYCAKYPYYYGTSHWYFDVWGQGTLVTVSS
VL: DIQLTQSPSSLSASVGDRVTITCSASQDISNYLNWYQQKPGKAPKVLIYFTSSLHSGVPSRFSGSGSGTDFTLTISSLQPEDFATYYCQQYSTVPWTFGQGTKVEIK
For B1, in the assay on VEGF, the “clinical outcome (vision, macular edema)” value is “rapidly and sustainably improved vision”.
